Here are results for 14 compounds from US20130303509A1, “NAMPT INHIBITORS” (AbbVie Inc., priority 2012, published 2013).

The structures appear in SMILES notation.

This assay deals with PC3 cells. The assay can be described thus: NAMPT Cell Proliferation Assay. It counts as cell-based. Particulars: Homo sapiens, PC-3, 120 h, 5 days incubation, cell viability by Cell Titer Glo. The method in brief: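 Seeded at 500 cells/well in RPMI with 10% heat-inactivated FBS and left to attach overnight at 37° C, 5% CO2. Compounds were added as 10-fold dilutions […] for 5 days, then viability was read by CellTiter-Glo. IC50s came from sigmoidal fits of percent inhibition.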

For the compound `COc1ccccc1C(=O)N1CCC(c2ccc(NC(=O)C3CN(c4cccnn4)C3)cc2)CC1` [Example 345, N-{4-[1-(2-methoxybenzoyl)piperidin-4-yl]phenyl}-1-(pyridazin-3-yl)azetidine-3-carboxamide], 1.99 nM corresponded to half-maximal inhibition (IC50).
Take `COc1cccc(C(=O)N2CCC(c3ccc(NC(=O)C4CN(c5cccnn5)C4)cc3)CC2)c1` [Example 346, N-{4-[1-(3-methoxybenzoyl)piperidin-4-yl]phenyl}-1-(pyridazin-3-yl)azetidine-3-carboxamide]: the IC50 – broadly, the concentration that inhibits the measured activity by half – came out at 3.8 nM.
The value for `COc1ccc(C(=O)N2CCC(c3ccc(NC(=O)C4CN(c5cccnn5)C4)cc3)CC2)cc1` [Example 347, N-{4-[1-(4-methoxybenzoyl)piperidin-4-yl]phenyl}-1-(pyridazin-3-yl)azetidine-3-carboxamide] was 8.06 nM; that for `O=C(Nc1ccc(C2CCN(C(=O)c3cccc(F)c3)CC2)cc1)C1CN(c2cccnn2)C1` [Example 348, N-{4-[1-(3-fluorobenzoyl)piperidin-4-yl]phenyl}-1-(pyridazin-3-yl)azetidine-3-carboxamide] was 2 nM.
Take `O=C(Nc1ccc(C2CCN(C(=O)c3ccc(F)cc3)CC2)cc1)C1CN(c2cccnn2)C1` [Example 349, N-{4-[1-(4-fluorobenzoyl)piperidin-4-yl]phenyl}-1-(pyridazin-3-yl)azetidine-3-carboxamide]: half-maximal inhibition (IC50) was put at 7.28 nM.
On to `O=C(Nc1ccc(C2CCN(C(=O)c3ccccc3Cl)CC2)cc1)C1CN(c2cccnn2)C1` [Example 350, N-{4-[1-(2-chlorobenzoyl)piperidin-4-yl]phenyl}-1-(pyridazin-3-yl)azetidine-3-carboxamide], for which the IC50 is 0.75 nM.
The value for `O=C(Nc1ccc(C2CCN(C(=O)c3cccc(Cl)c3)CC2)cc1)C1CN(c2cccnn2)C1` [Example 351, N-{4-[1-(3-chlorobenzoyl)piperidin-4-yl]phenyl}-1-(pyridazin-3-yl)azetidine-3-carboxamide] was 2.36 nM; that for `N#Cc1cccc(C(=O)N2CCC(c3ccc(NC(=O)C4CN(c5cccnn5)C4)cc3)CC2)c1` [Example 352, N-{4-[1-(3-cyanobenzoyl)piperidin-4-yl]phenyl}-1-(pyridazin-3-yl)azetidine-3-carboxamide] was 8.88 nM.
The result for `N#Cc1ccc(C(=O)N2CCC(c3ccc(NC(=O)C4CN(c5cccnn5)C4)cc3)CC2)cc1` [Example 353, N-{4-[1-(4-cyanobenzoyl)piperidin-4-yl]phenyl}-1-(pyridazin-3-yl)azetidine-3-carboxamide] reads 7.15 nM; that for `O=C(Nc1ccc(C2CCN(C(=O)c3cccc(C(F)(F)F)c3)CC2)cc1)C1CN(c2cccnn2)C1` [Example 354, 1-(pyridazin-3-yl)-N-(4-{1-[3-(trifluoromethyl)benzoyl]piperidin-4-yl}phenyl)azetidine-3-carboxamide], 7.51 nM.
The result for `O=C(Nc1ccc(C2CCN(C(=O)c3ccc(C(F)(F)F)cc3)CC2)cc1)C1CN(c2cccnn2)C1` [Example 355, 1-(pyridazin-3-yl)-N-(4-{1-[4-(trifluoromethyl)benzoyl]piperidin-4-yl}phenyl)azetidine-3-carboxamide] reads 9.79 nM; that for `O=C(Nc1ccc(C2CCN(C(=O)c3cccc(OC(F)(F)F)c3)CC2)cc1)C1CN(c2cccnn2)C1` [Example 356, 1-(pyridazin-3-yl)-N-(4-{1-[3-(trifluoromethoxy)benzoyl]piperidin-4-yl}phenyl)azetidine-3-carboxamide], 9.09 nM.
With `Cc1cccc(C(=O)N2CCC(c3ccc(NC(=O)C4CN(c5cccnn5)C4)cc3)CC2)c1C` [Example 357, N-{4-[1-(2,3-dimethylbenzoyl)piperidin-4-yl]phenyl}-1-(pyridazin-3-yl)azetidine-3-carboxamide], the concentration for half-maximal inhibition (IC50) was 1.47 nM.
`Cc1ccc(C(=O)N2CCC(c3ccc(NC(=O)C4CN(c5cccnn5)C4)cc3)CC2)c(C)c1` [Example 358, N-{4-[1-(2,4-dimethylbenzoyl)piperidin-4-yl]phenyl}-1-(pyridazin-3-yl)azetidine-3-carboxamide] returned an IC50 of 1.86 nM. The IC50 values of the last two compounds are within 1.5-fold of each other.
